One assay has as its system U-373 MG (Glioma). The experiment in a line: Cell migration of cancer cells (phase-contrast videomicroscopy), U-373 MG. The class given is cell-based, human. The protocol: (§1) Cells of different types of cancer, i.e. U-373 MG (Glioma), Hs578T (breast cancer), PC-3 (prostate cancer) and A549 (lung cancer) were seeded on culture flask 48 hours before the migration experiment. On the test day, cells were treated with or without compounds UBS3270, UBS3285, UBS3327, UBS3328, UBS3501, UBS3585, UBS3597, UBS3976, UBS4066, UBS4095, UBS4104, UBS4109, UBS4209 and UBS4373 in closed Falcon dishes containing a buffered medium at a controlled temperature (37.0±0.1° C.) for 12 or 24 hours. The compounds were administered at 4 concentrations (10^−7 M to 10^−10 M). Migration of the cells was observed by means of a CCD-camera mounted on a phase-contrast microscope. A statistical analyse of the migration, with the non-parametric Mann-Whitney test, was established for 25%-50% of the most motile cells and for the entire cell population for UBS3270, UBS3285, UBS3327, UBS3328, UBS3501, UBS3585, UBS3597, UBS3976, UBS4066, UBS4095, UBS4104, UBS4109, UBS4209 and UBS4373 compounds. The table C below illustrates the anti-migratory effect of the compound according to the invention.

The test system of another assay is A549 (lung cancer). The experiment in a line: Cell migration of cancer cells (phase-contrast videomicroscopy), A549. The assay is classed as cell-based, human. The settings on record: 25% of most motile cells. The protocol:
as §1

The subject of another assay is P388 lymphoma. The experiment in a line: Survival of P388 lymphoma bearing mice (T/C index). The assay is classed as in vivo, mouse. Particulars: 40 mg/kg subcutaneously, T/C of 130% or more = significant prolongation of survival. The protocol: The compounds UBS3328 and UBS3501 were evaluated on the aggressive P388 lymphoma cancer model. When leukemic P388 cells of lymphoblastic origin (Pihl A. UICC Study Group on chemosensitivity testing of human tumors. Problems-applications-future prospects. Int J Cancer. 1986 Jan. 15; 37(1):1-5) are grafted subcutaneously, they develop as very biologically aggressive anaplastic lymphomas markedly metastasizing first into the liver, then in the lungs and occasionally in kidneys. The mice suffering from P388 lymphomas usually die about 2 weeks after the cell injection. The P388 lymphoma was thus used as a model representative of a clinically terminal state of cancer.
The model was performed with 5 mice per group and the compounds UBS3328 and UBS3501 were injected subcutaneously at 40 mg/kg for 4 days, two times per day, for the two first weeks post graft followed by one administration everyday, one times per day for the third week post graft.
The effect of the compounds UBS3328 and UBS3501 on the survival of the P388 cancer bearing mice is evaluated following the analysis of the T/C index. T/C index is calculated by dividing the median day of death in a treated group T by the median day of death in the control group C. T/C values of 130% or more (i.e. a prolongation of mice survival of 30% or more) indicate a significant prolongation of survival.

For a further assay, the system named is PC-3 (prostate cancer). The experiment in a line: Cell migration of cancer cells (phase-contrast videomicroscopy), PC-3. The assay is classed as cell-based, human. The protocol: as §1
For another assay, the system named is Hs578T (breast cancer). The experiment in a line: Cell migration of cancer cells (phase-contrast videomicroscopy), Hs578T. The class given is cell-based, human. The method, then:
as §1

Where [1] appears, read: 24 hours, 25% of most motile cells, 10^−9 M.
The mark [2] stands for this setting: 12 hours, entire cell population, 10^−9 M.

Turning to `COc1ccc(OC)c(C2CC3C4CC=C5CC(OC6O[C@H](CO[C@H]7O[C@H](CO)[C@@H](O)[C@H](O)[C@H]7O)[C@@H](O)[C@H](O)[C@H]6O)CCC5(C)C4CCC3(C)C2C(C)=O)c1` (some centres unmarked) [UBS3328], the “Max. effects (anti-migratory effect)” value was −27%/p < 0.001 with U-373 MG (Glioma) (12 hours, entire cell population, 10^−10 M) and −40%/p < 0.001 in the assay with A549 (lung cancer) (24 hours, 10^−7 M). In the assay on P388 lymphoma, the “T/C index (median day of death treated / control)” value is on record as 135%. For `COc1ccc(OC)c(C2CC3C4CC=C5CC(OC6O[C@H](CO)[C@H](O)[C@H](O)[C@H]6NC(C)=O)CCC5(C)C4CCC3(C)C2C(C)=O)c1` (some centres unmarked) [UBS3597], the “Max. effects (anti-migratory effect)” value in the assay with PC-3 (prostate cancer) (setting [1]) is −31%/p < 0.001. `COc1ccc(OC)c(C2CC3C4CC=C5CC(OC6O[C@@H](C)[C@@H](O)[C@@H](O)[C@@H]6O)CCC5(C)C4CCC3(C)C2C(C)=O)c1` (some centres unmarked) [UBS3501]: the “Max. effects (anti-migratory effect)” value is reported as −38%/p = 0.01 in the assay on U-373 MG (Glioma) (24 hours, 25% of most motile cells, 10^−8 M) and −23%/p < 0.001 in the assay on PC-3 (prostate cancer) (12 hours, 25% of most motile cells, 10^−7 M). The “T/C index (median day of death treated / control)” value with P388 lymphoma was 141%. As to `COc1ccc(OC)c(C2CC3C4CC=C5CC(O[C@@H]6O[C@H](CO)[C@@H](O)[C@H](O)[C@H]6NC(C)=O)CCC5(C)C4CCC3(C)C2C(C)=O)c1` (some centres unmarked) [UBS4104], the “Max. effects (anti-migratory effect)” value in the assay on U-373 MG (Glioma) (12 hours, 50% of most motile cells, 10^−10 M) is recorded as −23%/p < 0.001; in the assay on A549 (lung cancer) (24 hours, 10^−10 M), −46%/p < 0.001. `COc1ccc(OC)c(C2CC3C4CC=C5CC(OC6O[C@H](CO[C@H]7O[C@H](CO)[C@@H](O)[C@H](O)[C@H]7O)[C@@H](O)[C@H](O)[C@H]6O)CCC5(C)C4CCC3(C)C2C(C)OC2O[C@H](CO[C@H]3O[C@H](CO)[C@@H](O)[C@H](O)[C@H]3O)[C@@H](O)[C@H](O)[C@H]2O)c1` (some centres unmarked) [UBS4373]: the “Max. effects (anti-migratory effect)” value in the assay with U-373 MG (Glioma) (setting [2]) was −24%/p < 0.001. As for `COc1ccc(OC)c(C2CC3C4CC=C5CC(OC6O[C@H](CO)[C@@H](O[C@H]7O[C@H](CO)[C@@H](O)[C@H](O)[C@H]7O)[C@H](O)[C@H]6O)CCC5(C)C4CCC3(C)C2C(C)=O)c1` (some centres unmarked) [UBS4095], the “Max. effects (anti-migratory effect)” value in the assay with U-373 MG (Glioma) (24 hours, entire cell population, 10^−9 M) is listed as −27%/p < 0.001.

For the molecule `COc1ccc(OC)c(C2CC3C4CC=C5CC(OC6O[C@H](CO)[C@@H](O)[C@H](O)[C@@H]6O)CCC5(C)C4CCC3(C)C2C(C)=O)c1` (some centres unmarked) [UBS3270], in the assay on Hs578T (breast cancer) (24 hours, 50% of most motile cells, 10^−7 M), the “Max. effects (anti-migratory effect)” value is given as −27%/p < 0.001. On to `COc1ccc(OC)c(C2CC3C4CC=C5CC(OC6O[C@H](CO)[C@@H](O[C@@H]7O[C@H](CO)[C@@H](O)[C@H](O)[C@H]7O)[C@H](O)[C@H]6O)CCC5(C)C4CCC3(C)C2C(C)OC2O[C@H](CO)[C@@H](O[C@@H]3O[C@H](CO)[C@@H](O)[C@H](O)[C@H]3O)[C@H](O)[C@H]2O)c1` (some centres unmarked) [UBS4109], for which, in the assay on PC-3 (prostate cancer) (setting [2]), the “Max. effects (anti-migratory effect)” value is −34%/p < 0.001. For the molecule `COc1ccc(OC)c(C2CC3C4CC=C5CC(OC6O[C@@H](C)[C@@H](O)[C@@H](O)[C@@H]6O)CCC5(C)C4CCC3(C)C2C(C)OC2O[C@@H](C)[C@@H](O)[C@@H](O)[C@@H]2O)c1` (some centres unmarked) [UBS4066], the “Max. effects (anti-migratory effect)” value in the assay with Hs578T (breast cancer) (12 hours, 25% of most motile cells, 10^−9 M) is reported as −29%/p < 0.001; in the assay with PC-3 (prostate cancer) (setting [1]), −45%/p < 0.001.

As for `COc1ccc(OC)c(C2CC3C4CC=C5CC(OC6O[C@H](CO)[C@@H](O[C@@H]7O[C@H](CO)[C@H](O)[C@H](O)[C@H]7O)[C@H](O)[C@H]6O)CCC5(C)C4CCC3(C)C2C(C)OC2O[C@H](CO)[C@@H](O[C@@H]3O[C@H](CO)[C@H](O)[C@H](O)[C@H]3O)[C@H](O)[C@H]2O)c1` (some centres unmarked) [UBS4209], the “Max. effects (anti-migratory effect)” value was −26%/p < 0.001 in the assay with Hs578T (breast cancer) (24 hours, 25% of most motile cells, 10^−7 M) and −26%/p < 0.001 in the assay with A549 (lung cancer) (12 hours, 10^−8 M). On to `COc1ccc(OC)c(C2CC3C4CC=C5CC(OC6O[C@H](CO)[C@@H](O)[C@H](O)[C@H]6NC(C)=O)CCC5(C)C4CCC3(C)C2C(C)=O)c1` (some centres unmarked) [UBS3585], for which the “Max. effects (anti-migratory effect)” value with Hs578T (breast cancer) (24 hours, entire cell population, 10^−7 M) is given as −27%/p < 0.001. Turning to `COc1ccc(OC)c(C2CC3C4CC=C5CC(OC6O[C@H](CO)[C@@H](O[C@@H]7O[C@H](CO)[C@H](O)[C@H](O)[C@H]7O)[C@H](O)[C@H]6O)CCC5(C)C4CCC3(C)C2C(C)=O)c1` (some centres unmarked) [UBS3976], the “Max. effects (anti-migratory effect)” value in the assay with U-373 MG (Glioma) (24 hours, 25% of most motile cells, 10^−10 M) is −46%/p < 0.001; with PC-3 (prostate cancer) (12 hours, 25% of most motile cells, 10^−8 M) it was −51%/p < 0.001.

For the origin of these results see patent US20070123473A1, “Glycosylated steroid derivatives with anti-migratory activity” (priority 2003, published 2007).
